The values below come from PubChem BioAssay AID1053149 (Broad Institute, 2014).

The subject of test [1] is HepG2 secreted PCSK9, ELISA, 24 h. Nature of the test: reduction of secreted PCSK9 protein, dose response, orthogonal assay for Trib1 inducer project, cell-based, HepG2, ELISA, plate reader, cherry-pick (AID 1053149).
Test in test [2]: as above
The conditions noted are these: HepG2 secreted PCSK9, ELISA, 24 h; measured here: maximal PCSK9 decrease; stronger effect = higher value. (An ELISA detects its analyte on a solid surface through an enzyme-linked reagent.)

With `CN1C(=O)c2cc(NC(=O)c3ccc(C(F)(F)F)cc3)ccc2OC[C@@H]2O[C@H](CC(=O)NC3Cc4ccccc4C3)CC[C@@H]21`, the concentration at half-maximal activity (AC50) in test [1] is 0.6 µM. The decrease in PCSK9 in test [2] came to 79%.

Turning to `CN1C(=O)c2cc(NC(=O)c3ccc(C(F)(F)F)cc3)ccc2OC[C@@H]2O[C@@H](CC(=O)NC3Cc4ccccc4C3)CC[C@@H]21`, the AC50 in test [1] was 6.6 µM. Also, the decrease in PCSK9 in test [2] was found to be 80%.

Usually AC50 stands for the concentration at which the activity in the assay is half-maximal.
